In DBAASP:
Converted amounts (≈) assume the structure as drawn.

Legend:
Assay in all cases: ≥ marks a high value that may be exact or a test limit, other limits are often not marked, values filed in µg/mL are converted to µM
[1] = system: Candida albicans F7-39/IDE99
[2] = system: Staphylococcus aureus ATCC 43300
Pseudomonas aeruginosa = system: Pseudomonas aeruginosa
Staphylococcus aureus = system: Staphylococcus aureus
[3] = system: Micrococcus luteus CCM 144
Staphylococcus aureus 1 = system: Staphylococcus aureus 1
[4] = system: Pseudomonas aeruginosa ATCC 27853
[5] = system: Staphylococcus epidermidis
Bacillus subtilis 168 = system: Bacillus subtilis 168
Escherichia coli B = system: Escherichia coli B
Bacillus megaterium Bm11 = system: Bacillus megaterium Bm11
[6] = system: Yersinia pseudotuberculosis YPIII
[7] = system: Staphylococcus aureus Cowan 1
[8] = system: Candida albicans ATCC 10231
[9] = system: Escherichia coli ATCC 25922
Staphylococcus capitis 1 = system: Staphylococcus capitis 1
[10] = system: Staphylococcus epidermidis RP62A
[11] = system: Staphylococcus epidermidis RP62A/1
[12] = system: Candida albicans ATCC 90028
[13] = system: Klebsiella pneumoniae ATCC 700603
[14] = system: Stenotrophomonas maltophilia B32/4
[15] = system: Acinetobacter baumannii NM8
[16] = system: Staphylococcus aureus ATCC 25923
[17] = system: Escherichia coli ATCC 25726
Escherichia coli = system: Escherichia coli
Salmonella typhimurium = system: Salmonella typhimurium
Micrococcus luteus = system: Micrococcus luteus
Proteus mirabilis = system: Proteus mirabilis
Shigella dysenteriae = system: Shigella dysenteriae
Serratia marcescens = system: Serratia marcescens
Bacillus subtilis = system: Bacillus subtilis
Klebsiella pneumoniae = system: Klebsiella pneumoniae
Candida albicans = system: Candida albicans

CC[C@H](C)[C@H](NC(=O)CN)C(=O)N[C@@H](CCSC)C(=O)N[C@@H](CO)C(=O)N[C@@H](CO)C(=O)N[C@@H](CC(C)C)C(=O)N[C@@H](CCSC)C(=O)N[C@@H](CCCCN)C(=O)N[C@@H](CCCCN)C(=O)N[C@@H](CC(C)C)C(=O)N[C@@H](C)C(=O)N[C@@H](CCCCN)C(=O)N[C@@H](Cc1cnc[nH]1)C(=O)N[C@H](C(=O)N[C@@H](C)C(=O)N[C@@H](CCCCN)C(N)=O)[C@@H](C)CC [GIMSSLMKKLAKHIAK]
MIC [1]: 14 µM (≈ 24.6 µg/mL)
MIC [2]: 63 µM (≈ 111 µg/mL)
MIC (Pseudomonas aeruginosa): 20 µM (≈ 35.1 µg/mL)
MIC (Staphylococcus aureus): 63 µM (≈ 111 µg/mL)
MIC [3]: 3 µM (≈ 5.27 µg/mL)
MIC (Staphylococcus aureus 1): ≥ 35 µM
MIC [4]: 7.9 µM (≈ 13.9 µg/mL)
MIC [5]: 6.2 µM (≈ 10.9 µg/mL)
MIC (Bacillus subtilis 168): 7 µM (≈ 12.3 µg/mL)
MIC (Escherichia coli B): 15 µM (≈ 26.3 µg/mL)

CC[C@H](C)[C@H](NC(=O)CNC(=O)[C@H](CO)NC(=O)[C@H](CC(C)C)NC(=O)[C@@H](NC(=O)[C@H](CCCN=C(N)N)NC(=O)CNC(=O)[C@@H](NC(=O)[C@H](CC(C)C)NC(=O)[C@H](C)NC(=O)[C@H](CC(C)C)NC(=O)[C@@H](N)Cc1ccccc1)[C@@H](C)CC)C(C)C)C(=O)N[C@@H](CC(C)C)C(N)=O [FLALIGRVLSGIL]
MIC (Bacillus megaterium Bm11): 2.5 µM (≈ 3.43 µg/mL)
MIC [6]: 20 µM (≈ 27.4 µg/mL)
MIC [7]: 2.5 µM (≈ 3.43 µg/mL)
MIC [8]: 1.25 µM (≈ 1.71 µg/mL)
MIC [9]: > 40 µM
MIC (Staphylococcus capitis 1): 2.5 µM (≈ 3.43 µg/mL)

CC[C@H](C)[C@H](N)C(=O)N[C@@H](CC(C)C)C(=O)NCC(=O)N[C@@H](CCCCN)C(=O)N[C@@H](CC(C)C)C(=O)N[C@@H](CC(C)C)C(=O)N[C@@H](CO)C(=O)N[C@H](C(=O)N[C@@H](C)C(=O)N[C@@H](C)C(=O)N[C@@H](CCCCN)C(=O)N[C@@H](CC(C)C)C(=O)N[C@@H](CC(C)C)C(=O)N[C@@H](CO)C(=O)N[C@@H](CC(N)=O)C(=O)N[C@@H](CC(C)C)C(N)=O)[C@@H](C)O [ILGKLLSTAAKLLSNL]
MIC [10]: 4 µM (≈ 6.62 µg/mL)
MIC [11]: 4 µM (≈ 6.62 µg/mL)
MIC [12]: 16 µM (≈ 26.5 µg/mL)
MIC [13]: 32 µM (≈ 52.9 µg/mL)
MIC [4]: 32 µM (≈ 52.9 µg/mL)
MIC [14]: ≥ 32 µM
MIC [15]: 8 µM (≈ 13.2 µg/mL)
MIC [16]: 4 µM (≈ 6.62 µg/mL)
MIC [17]: ≥ 32 µM

CC[C@H](C)[C@H](NC(=O)[C@@H](N)C(C)C)C(=O)N1CCC[C@H]1C(=O)N[C@@H](Cc1ccccc1)C(=O)N[C@H](C(=O)N[C@@H](C)C(=O)N[C@@H](CO)C(=O)N[C@H](C(=O)N[C@@H](C)C(=O)N[C@@H](C)C(=O)N[C@@H](CCC(=O)O)C(=O)N[C@@H](CCSC)C(=O)N[C@@H](CCSC)C(=O)N[C@@H](Cc1cnc[nH]1)C(=O)N[C@@H](Cc1cnc[nH]1)C(=O)N[C@H](C(=O)N[C@@H](Cc1ccc(O)cc1)C(=O)N[C@H]1CSSC[C@@H](C(=O)O)NC(=O)[C@H](CCCN=C(N)N)NC(=O)[C@H](CCCCN)NC(=O)[C@H](CO)NC(=O)[C@H](C)NC(=O)[C@H](C)NC1=O)C(C)C)C(C)C)C(C)C [VIPFVASVAAEMMHHVYCAASKRC]
MIC (Pseudomonas aeruginosa): > 76.3 µM
MIC (Escherichia coli): > 76.3 µM
MIC (Salmonella typhimurium): ≥ 76.3 µM
MIC (Micrococcus luteus): 9.54 µM (≈ 25 µg/mL)
MIC (Proteus mirabilis): ≥ 76.3 µM
MIC (Shigella dysenteriae): ≥ 76.3 µM
MIC (Serratia marcescens): ≥ 76.3 µM
MIC (Bacillus subtilis): ≥ 76.3 µM
MIC (Klebsiella pneumoniae): > 76.3 µM
MIC (Candida albicans): 76.3 µM (≈ 200 µg/mL)
